Assay results: patent publication US20030091980A1, “Detection and characterization of psychoactives using analysis of network level physiological responses in a neuronal sample” (priority 2001, published 2003)

What was measured:
Format in all cases: cell-based, Sprague-Dawley rat
hippocampal slice [1] = test: Evoked responses following Schaffer collateral stimulation in presence and absence of carbachol (field potentials, current source density)
Method: (§1) A 17-25 day old Sprague-Dawley rat was sacrificed by decapitation after anesthesia using halothane (2-Bromo-2-chloro-1,1,1-trifluoroethane, Sigma: B4388), and the whole brain was removed. The brain was immediately soaked in ice-cold, oxygenated preparation buffer of the following composition (in mM): 124 NaCl, 26 NaHCO3, 10 glucose, 3 KCl, 1.25 NaH2PO4, 1.5 CaCl2, 0.5 MgSO4, for approximately 2 minutes. Appropriate portions of the brain were trimmed and placed on the ice-cold stage of a vibrating tissue slicer (Leica: VT-1000S). The stage was immediately filled with both oxygenated and frozen preparation buffers. The thickness of each tissue slice was 350 μm. Each slice was gently taken off the blade using a blunt-end pipette, and immediately soaked in oxygenated preparation buffer for at least 1 hour at room temperature. A slice was then placed on the center of the MED probe, positioned to cover the 8×8 array. After positioning the slice, the MED probe was placed directly in a box filled with 95% O2 and 5% CO2 and allowed to recover and adhere at 32° C. for 1 hour.
(§2) During electrophysiological recording, the slices on the MED probe were placed in a small CO2 incubator (Yamato: model IC400) at 32° C. The slices remained on the MED probe, which was attached to a recording interface, and a moisturized 95% O2 and 5% CO2 gas mixture was blown from above. In this condition, responses were recorded for more than 2 hours.
Carbachol was obtained from Sigma. A carbachol solution was applied to the neuronal samples at known concentrations of either 25 or 50 μM. The lower concentration was used in all except two cases. […] Carbachol solutions were prepared daily from frozen aliquots.
Spontaneous and evoked field potentials at all 64 sites were recorded simultaneously with the multi-channel recording system (Panasonic: MED64 system) at a 20 kHz sampling rate. In the case of the evoked response, one or more than two microelectrodes out of the 64 available were chosen for stimulating. Bipolar constant current pulses (20 to 40 μA, 0.1 msec) were produced by the data acquisition software through the isolator. The stimulating microelectrodes were selected by the 64 switchbox.
The method of continuous, two-dimensional current source density employed has been previously described (Shimono et al., supra). The 2-dimensional array of electrodes allows for simultaneous estimation of current flows in any direction within the plane of the slice. The data was low-pass filtered at 100 Hz and spatially smoothed by a 3×3-weighted average kernel (0 1/8 0, 1/8 1/2 1/8, and 0 1/8 0). […] A limitation of the technique is that only large spatial patterns, with radii≧one-half of the interelectrode distance, can be accurately resolved. Additionally, low-pass filtering removes high-frequency data, limiting the amount of fine detail that can be observed.

hippocampal slice [2] = test: Carbachol-induced beta rhythms in hippocampal tissue (64-electrode recording, FFT); conditions: FIG. 2
Text: (§3) Procedures for the preparation of the recently introduced Multi-Electrode Dish (Panasonic: MED probe) are described by Oka et al., J Neurosci Methods 93: 61-67 (1999). The device has an array of 64 planar microelectrodes, each having a size of 50×50 μm, arranged in an 8 by 8 pattern. Probes used in the experiments described below were medium arrays with 300 μm interelectrode spacing (Panasonic: MED-P530AP).
A 17-25 day old Sprague-Dawley rat was sacrificed by decapitation after anesthesia using halothane (2-Bromo-2-chloro-1,1,1-trifluoroethane, Sigma: B4388), and the whole brain was removed. The brain was immediately soaked in ice-cold, oxygenated preparation buffer of the following composition (in mM): 124 NaCl, 26 NaHCO3, 10 glucose, 3 KCl, 1.25 NaH2PO4, 1.5 CaCl2, 0.5 MgSO4, for approximately 2 minutes. Appropriate portions of the brain were trimmed and placed on the ice-cold stage of a vibrating tissue slicer (Leica: VT-1000S). […]
During electrophysiological recording, the slices on the MED probe were placed in a small CO2 incubator (Yamato: model IC400) at 32° C. […] In this condition, responses were recorded for more than 2 hours. […]
(§4) Spontaneous and evoked field potentials at all 64 sites were recorded simultaneously with the multi-channel recording system (Panasonic: MED64 system) at a 20 kHz sampling rate. […]

hippocampal slice [3] = test: Network level evoked response to single pulse Schaffer commissural stimulation during carbachol-induced rhythms, multi-electrode dish
Text: as §3
For sufficient adhesion of the slice to the probe, the surface of the MED probe was treated with 0.1% polyethylenimine (Sigma: P-3143) in 25 mM borate buffer, pH 8.4, for 8 hours at room temperature. The probe surface was rinsed 3 times with sterile distilled water. The probe (chamber) was then filled with DMEM/F-12 mixed medium, containing 10% fetal bovine serum (GIBCO: 16141-079) and 10% horse serum (GIBCO: 16050-122), for at least 1 hour at 37° C. DMEM/F-12 mixed medium is a 1:1 mixture of Dulbecco's Modified Eagle's Medium and Ham's F-12 (GIBCO: D/F-12 medium, 12400-024), supplemented with N2 supplement (GIBCO: 17502-014) and hydrocortisone (20 nM, Sigma, H0888).
as §1, §2
Carbachol was obtained from Sigma. […]
as §4

[4] = CA1 apical dendrites, presence of carbachol
[5] = single pulse stimulation with carbachol, eight slices
[6] = 100 μM heptachlor, Schaffer commissural stimulation, FIG. 8

Compound	intensity of activity (current source density) (hippocampal slice [1]; 25 μM carbachol vs without carbachol, 10 ms after stimulation)	spread of activity (current source density) (hippocampal slice [1]; 25 μM carbachol vs without carbachol, 10 ms after stimulation, particularly field CA3)	start of slow negative going component after stimulation (hippocampal slice [1]; [4])	start of slow negative going component after the initial response (hippocampal slice [1]; [4])	return to baseline after stimulation (hippocampal slice [1]; CA1 stratum radiatum and oriens, carbachol-induced beta waves, FIG. 4)	return to baseline of positive-going potential (hippocampal slice [1]; CA3 basal dendritic field, carbachol-driven beta rhythms, FIG. 5)	stimulation trials eliciting a sustained network response (hippocampal slice [1]; Schaffer collateral stimulation in the presence of cholinergic rhythms)	frequency of bursts of spikes accompanying the first carbachol dependent slow potential (hippocampal slice [1]; field CA3)	recordings with responses similar to the control responses (hippocampal slice [1]; [5])	traces with bursts of spikes in CA3 stratum pyramidale and prominent after potentials in CA1 and CA3 (hippocampal slice [1]; [5])	dominant frequency of rhythms (normalized power spectra, all 64 electrodes) (hippocampal slice [2]; 25 μM carbachol)	stability of rhythms (hippocampal slice [2]; after carbachol infusion)	depolarizing phase of the slow component of the waveform (hippocampal slice [3]; 100 μM heptachlor, FIG. 8)	fast component, corresponding to the traditional evoked response (hippocampal slice [3]; [6])	slow component of the network complex evoked response (hippocampal slice [3]; [6])	network level evoked response to single pulse Schaffer commissural stimulation upon infusion (hippocampal slice [3]; figure legends FIGS. 8-11)
C[N+](C)(C)CCOC(N)=O [carbachol]	markedly increased	far greater	25 ms	about 10 msec	140 ms	approximately 125 ms	approximately 70%	100-200 Hz	16 of 53	37 of 53	in the beta range	stable for over two hours				
ClC1=C(Cl)C2(Cl)C3C(Cl)C=CC3C1(Cl)C2(Cl)Cl (stereo not shown) [heptachlor]													complete elimination	not changed	changed dramatically	changes
